Laboratory results from ChEMBL document CHEMBL1201862, “PubChem BioAssay data set” (2004).
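Following 48 hours of exposure in 96-well plates, responses at five concentrations were used to interpolate endpoints linearly. Abbreviation: GI50, concentration required for 50% inhibition of growth.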 The source made the active and inactive calls. Cut-off read from the data, not from the text of the source: active = GI50 up to about 1.1 µM and inactive = higher.

Experiments:
Experiment in all cases: DTP human tumour cell line panel, 48 h
NCI-H460 = system: NCI-H460
SN12C = system: SN12C
UACC-257 = system: UACC-257
MDA-MB-231 = system: MDA-MB-231
SK-MEL-2 = system: SK-MEL-2
HCT-15 = system: HCT-15
ACHN = system: ACHN
NCI-H226 = system: NCI-H226
SNB-19 = system: SNB-19
M14 = system: M14
DU-145 = system: DU-145
SR = system: SR
MDA-N = system: MDA-N
TK-10 = system: TK-10
MCF7 = system: MCF7
EKVX = system: EKVX
HL-60 = system: HL-60
CCRF-CEM = system: CCRF-CEM
LOX IMVI = system: LOX IMVI
HT-29 = system: HT-29
SW-620 = system: SW-620
SNB-75 = system: SNB-75
K562 = system: K562
PC-3 = system: PC-3
HCT-116 = system: HCT-116
IGROV-1 = system: IGROV-1
Hs-578T = system: Hs-578T
NCI-H522 = system: NCI-H522
UACC-62 = system: UACC-62
SK-OV-3 = system: SK-OV-3
HOP-62 = system: HOP-62
RPMI-8226 = system: RPMI-8226
OVCAR-8 = system: OVCAR-8
OVCAR-5 = system: OVCAR-5
BT-549 = system: BT-549
A498 = system: A498
Malme-3M = system: Malme-3M
KM12 = system: KM12
SF-295 = system: SF-295
CAKI-1 = system: CAKI-1
SF-539 = system: SF-539
T47D = system: T47D
OVCAR-4 = system: OVCAR-4
U-251 = system: U-251
MDA-MB-435 = system: MDA-MB-435
COLO 205 = system: COLO 205
RXF 393 = system: RXF 393
OVCAR-3 = system: OVCAR-3
NCI/ADR-RES = system: NCI/ADR-RES
SK-MEL-5 = system: SK-MEL-5
HOP-92 = system: HOP-92
MOLT-4 = system: MOLT-4
SF-268 = system: SF-268
HCC 2998 = system: HCC 2998
A549 = system: A549
SK-MEL-28 = system: SK-MEL-28
786-0 = system: 786-0
NCI-H23 = system: NCI-H23
UO-31 = system: UO-31

With `Nc1cc(-c2ccc(Cl)cc2)nn1-c1nc2ccccc2nc1-c1ccccc1` the GI50 (NCI-H460) was > 100 µM (inactive), the GI50 (SN12C) was 80.7 µM (inactive) and the GI50 (UACC-257) was > 100 µM (inactive). The GI50 (MDA-MB-231) was > 100 µM (inactive), the GI50 (SK-MEL-2) was 59.7 µM (inactive) and the GI50 (HCT-15) was > 100 µM. The GI50 (ACHN) was 70.6 µM (inactive), the GI50 (NCI-H226) was > 100 µM (inactive) and the GI50 (SNB-19) was 47.8 µM (inactive). The GI50 (M14) was > 100 µM (inactive), the GI50 (DU-145) was > 100 µM (inactive) and the GI50 (SR) was 71.8 µM (inactive). For the same compound, the GI50 (MDA-N) was > 100 µM (inactive), the GI50 (TK-10) was 77.1 µM (inactive) and the GI50 (MCF7) was > 100 µM (inactive). For the same compound, the GI50 (EKVX) was > 100 µM (inactive), the GI50 (HL-60) was > 100 µM (inactive) and the GI50 (CCRF-CEM) was > 100 µM (inactive). For the same compound, the GI50 (LOX IMVI) was > 100 µM (inactive), the GI50 (HT-29) was 11.9 µM (inactive) and the GI50 (SW-620) was > 100 µM (inactive). For the same compound, the GI50 (SNB-75) was 27.6 µM (inactive), the GI50 (K562) was > 100 µM (inactive) and the GI50 (PC-3) was 22.2 µM (inactive). For the same compound, the GI50 (HCT-116) was > 100 µM (inactive), the GI50 (IGROV-1) was 38.3 µM (inactive) and the GI50 (Hs-578T) was 70.5 µM (inactive). The GI50 (NCI-H522) was > 100 µM (inactive), the GI50 (UACC-62) was > 100 µM (inactive) and the GI50 (SK-OV-3) was > 100 µM (inactive). For the same compound, the GI50 (HOP-62) was 49 µM (inactive), the GI50 (RPMI-8226) was 37.5 µM (inactive) and the GI50 (OVCAR-8) was > 100 µM (inactive). The GI50 (OVCAR-5) was > 100 µM (inactive), the GI50 (BT-549) was > 100 µM (inactive) and the GI50 (A498) was > 100 µM (inactive). For the same compound, the GI50 (Malme-3M) was 50.9 µM (inactive), the GI50 (KM12) was > 100 µM (inactive) and the GI50 (SF-295) was > 100 µM (inactive). The GI50 (CAKI-1) was > 100 µM (inactive), the GI50 (SF-539) was 95.9 µM (inactive) and the GI50 (T47D) was 13.3 µM (inactive). The GI50 (OVCAR-4) was 56.8 µM (inactive), the GI50 (U-251) was 48.1 µM (inactive) and the GI50 (MDA-MB-435) was > 100 µM (inactive). For the same compound, the GI50 (COLO 205) was > 100 µM (inactive), the GI50 (RXF 393) was 35 µM (inactive) and the GI50 (OVCAR-3) was 65 µM (inactive). For the same compound, the GI50 (NCI/ADR-RES) was > 100 µM (inactive), the GI50 (SK-MEL-5) was 92 µM (inactive) and the GI50 (HOP-92) was 56 µM (inactive). For the same compound, the GI50 (MOLT-4) was 8.02 µM (inactive), the GI50 (SF-268) was > 100 µM (inactive) and the GI50 (HCC 2998) was > 100 µM (inactive). The GI50 (A549) was > 100 µM (inactive), the GI50 (SK-MEL-28) was 79.4 µM (inactive) and the GI50 (786-0) was 39 µM (inactive).
For `O=C(/C=C/c1ccc(OCc2ccccc2)cc1)NCc1ccc(C(=O)NCCc2c[nH]c3ccccc23)cc1`, the GI50 (NCI-H460) was 15.4 µM (inactive), the GI50 (SN12C) was 23.8 µM (inactive) and the GI50 (UACC-257) was 33 µM (inactive). The GI50 (MDA-MB-231) was 13.8 µM (inactive), the GI50 (SK-MEL-2) was 31 µM (inactive) and the GI50 (HCT-15) was > 94 µM. The GI50 (ACHN) was 36.5 µM (inactive), the GI50 (NCI-H226) was > 34.6 µM (inactive) and the GI50 (SNB-19) was 9.77 µM (inactive). For the same compound, the GI50 (M14) was 27.8 µM (inactive), the GI50 (DU-145) was 32.8 µM (inactive) and the GI50 (SR) was 20.9 µM (inactive). The GI50 (MDA-N) was > 100 µM (inactive), the GI50 (TK-10) was 9.35 µM (inactive) and the GI50 (NCI-H23) was 14.9 µM (inactive). The GI50 (MCF7) was 17.1 µM (inactive), the GI50 (EKVX) was > 87.1 µM (inactive) and the GI50 (HL-60) was 6.22 µM (inactive). The GI50 (CCRF-CEM) was 70.6 µM (inactive), the GI50 (LOX IMVI) was 44.3 µM (inactive) and the GI50 (HT-29) was 4.33 µM (inactive). The GI50 (SW-620) was > 65.2 µM (inactive), the GI50 (SNB-75) was 8.3 µM (inactive) and the GI50 (K562) was 44.4 µM (inactive). For the same compound, the GI50 (PC-3) was 12 µM (inactive), the GI50 (HCT-116) was 15.4 µM (inactive) and the GI50 (IGROV-1) was 15.9 µM (inactive). The GI50 (Hs-578T) was 6.35 µM (inactive), the GI50 (UACC-62) was 15.5 µM (inactive) and the GI50 (SK-OV-3) was 15.7 µM (inactive). For the same compound, the GI50 (HOP-62) was 3.66 µM (inactive), the GI50 (RPMI-8226) was > 100 µM (inactive) and the GI50 (OVCAR-8) was 6.76 µM (inactive). For the same compound, the GI50 (OVCAR-5) was 18.2 µM (inactive), the GI50 (BT-549) was 66.1 µM (inactive) and the GI50 (A498) was 38.9 µM (inactive). The GI50 (Malme-3M) was 12.9 µM (inactive), the GI50 (KM12) was 63.8 µM (inactive) and the GI50 (SF-295) was 3.41 µM (inactive). For the same compound, the GI50 (CAKI-1) was 9.18 µM (inactive), the GI50 (SF-539) was 2.67 µM (inactive) and the GI50 (T47D) was 30.4 µM (inactive). For the same compound, the GI50 (OVCAR-4) was 7.76 µM (inactive), the GI50 (U-251) was 4.37 µM (inactive) and the GI50 (MDA-MB-435) was > 57.3 µM (inactive). The GI50 (COLO 205) was > 75.5 µM (inactive), the GI50 (RXF 393) was 7.06 µM (inactive) and the GI50 (OVCAR-3) was 29 µM (inactive). The GI50 (NCI/ADR-RES) was > 100 µM (inactive), the GI50 (SK-MEL-5) was 17.8 µM (inactive) and the GI50 (HOP-92) was 21 µM (inactive). For the same compound, the GI50 (MOLT-4) was > 59.8 µM (inactive), the GI50 (UO-31) was 35 µM (inactive) and the GI50 (SF-268) was 11.1 µM (inactive). The GI50 (HCC 2998) was 43.2 µM (inactive), the GI50 (A549) was 17.7 µM (inactive) and the GI50 (SK-MEL-28) was 74.5 µM (inactive). The GI50 (786-0) was 3.61 µM (inactive).
